Data from patent EP2951180B1, “2,6,7,8 SUBSTITUTED PURINES AS HDM2 INHIBITORS” (Merck Sharp & Dohme Corp., priority 2013, dated 2014).

Molecular target: T1, HDM2 (Homo sapiens, UniProt Q00987)
T1 construct: Thioredoxin (N); made in house; host or cells: E. coli strain BL21(DE3)Rosetta
Test: HDM2 FRET assay (inhibition of binding of FITC labeled p53-pocket peptide to HDM2)
Settings: 0.5 nM HDM2 (residues 17 to 125), 3nM peptide, two hour incubation at room temperature; read-out: FRET IC50
From the text: Methods: An HDM2 FRET assay was developed to assess the compounds' inhibitory activity towards binding of p53 protein. […] Protein was purified using Ni-affinity chromatography, followed by size exclusion chromatography using Superdex 75 26/60 column. […] The HDM2 assay buffer contained 1x Phosphate Buffered Saline (Invitrogen, Cat#14190), 0.01% BSA (Jackson ImmunoResearch, Cat# 001-000-162), 0.01% Tween-20. In the 1X assay buffer recombinant HDM2 protein, peptide and Lumi4-Tb Cryptate-conjugate mouse anti-6xHis antibody (cisbio, Cat#Tb61HISTLB) were added and transferred to ProxiPlate PLUS (PerkinElmer, Cat#6008269), containing compounds so that final DMSO concentration is 0.1% . Final concentrations of reagents in the assay wells are 0.5 nM HDM2, 0.25nM anti HIS (Tb label) antibody and 3nM peptide. […] Ratio of em520/em495 was used to calculate %inhibition and to obtain IC50 with 4-parameter logistic equation.
IC50 DETERMINATIONS: Dose-response curves were plotted from the inhibition data, from 10 point serial dilutions of inhibitory compounds. Concentration of compound was plotted against em520/Cem495 ratio signal. To generate IC50 values, the dose-response curves were fitted to a standard sigmoidal curve and IC50 values were derived by nonlinear regression analysis.

T1 sequence (Q00987 17-125): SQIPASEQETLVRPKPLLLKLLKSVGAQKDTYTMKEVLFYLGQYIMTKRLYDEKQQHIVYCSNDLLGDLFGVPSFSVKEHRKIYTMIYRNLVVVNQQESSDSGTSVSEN

| Compound | IC50 |
| --- | --- |
| CC(C)c1ccnc(-c2nc3nc(C(=O)O)nc(OC(C)C4CCC4)c3n2Cc2ccc(C(F)(F)F)c(F)c2)c1 (racemic) [Example 17.7, 6-(1-cyclobutylethoxy)-7-[3-fluoro-4-(trifluoromethyl)benzyl]-8-[4-(propan-2-yl)pyridin-2-yl]-7H-purine-2-carboxylic acid] | 0.015 µM |
| CC(C)c1ccnc(-c2nc3nc(C(=O)O)nc(OC(C)C4CCC4)c3n2C[C@H]2CC[C@H](C)CC2)c1 (mixture of isomers) [Example 17.8, 6-(1-cyclobutylethoxy)-7-[(trans-4-methylcyclohexyl)methyl]-8-[4-(propan-2-yl)pyridin-2-yl]-7H-purine-2-carboxylic acid] | 0.0103 µM |
| CC1CN(C)CCN1c1nc2nc(-c3noc(=O)[nH]3)nc(-c3cccc(Cl)c3)c2n1C[C@H]1CC[C@H](C)CC1 (relative stereo) [Example 16.53, 3-{6-(3-chlorophenyl)-8-(2,4-dimethylpiperazin-1-yl)-7-[(trans-4-methylcyclohexyl)methyl]-7H-purin-2-yl}-1,2,4-oxadiazol-5(4H)-one] | 0.0428 µM |

Same assay, conditions: Table 23; read-out: FRET IC50

| Compound | IC50 |
| --- | --- |
| C[C@H]1CC[C@H](Cn2c(C(O)C3CCOCC3)nc3nc(-c4n[nH]c(=O)o4)nc(-c4cccc(Cl)c4)c32)CC1 (mixture of isomers) [Example 23.1, 5-{6-(3-chlorophenyl)-8-[hydroxy(tetrahydro-2H-pyran-4-yl)methyl]-7-[(trans-4-methylcyclohexyl)methyl] -7H-purin-2-yl}-1,3,4-oxadiazol-2(3H)-one] | 0.0673 µM |
| C[C@H]1CC[C@H](Cn2c(C(O)C3CCOCC3)nc3nc(-c4noc(=O)[nH]4)nc(-c4cccc(Cl)c4)c32)CC1 (mixture of isomers) [Example 23.2, 3-{6-(3-chlorophenyl)-8-[hydroxy(tetrahydro-2H-pyran-4-yl)methyl]-7-[(trans-4-methylcyclohexyl)methyl]-7H-purin-2-yl}-1,2,4-oxadiazol-5(4H)-one] | 0.0515 µM |
| CC(O)(c1nc2nc(-c3noc(=O)[nH]3)nc(-c3cccc(Cl)c3)c2n1C[C@H]1CC[C@H](C)CC1)C1CCOCC1 (mixture of isomers) [Example 23.4, 3-{6-(3-chlorophenyl)-8-[1-hydroxy-1-(tetrahydro-2H-pyran-4-yl)ethyl]-7-[(trans-4-methylcyclohexyl)methyl]-7H-purin-2-yl}-1,2,4-oxadiazol-5(4H)-one] | 0.0192 µM |
| COC(c1nc2nc(-c3noc(=O)[nH]3)nc(-c3cccc(Cl)c3)c2n1C[C@H]1CC[C@H](C)CC1)C1CCOCC1 (mixture of isomers) [Example 23.12, 3-{6-(3-chlorophenyl)-8-[methoxy(tetrahydro-2H-pyran-4-yl)methyl]-7-[(trans-4-methylcyclohexyl)methyl] -7H-purin-2-yl}-1,2,4-oxadiazol-5(4H)-one] | 0.0133 µM |
| C[C@H]1CC[C@H](Cn2c(C(O)C3CCOCC3)nc3nc(-c4noc(=O)[nH]4)nc(-c4cncc(Cl)c4)c32)CC1 (mixture of isomers) [Example 23.17, 3-{6-(5-chloropyridin-3-yl)-8-[hydroxy(tetrahydro-2H-pyran-4-yl)methyl]-7-[(trans-4-methylcyclohexyl)methyl] -7H-purin-2-yl}-1,2,4-oxadiazol-5(4H)-one] | 0.0673 µM |
| COC(c1ccccc1F)c1nc2nc(-c3n[nH]c(=O)o3)nc(-c3cncc(Cl)c3)c2n1C[C@H]1CC[C@H](C)CC1 (mixture of isomers) [Example 23.103, 5-{6-(5-chloropyridin-3-yl)-8-[(2-fluorophenyl)(methoxy)methyl]-7-[(trans-4-methylcyclohexyl)methyl]-7H-purin-2-yl}-1,3,4-oxadiazol-2(3H)-one] | 0.0017 µM |
| COC(c1ccccc1C#N)c1nc2nc(-c3noc(=O)[nH]3)nc(-c3cncc(Cl)c3)c2n1C[C@H]1CC[C@H](C)CC1 (mixture of isomers) [Example 23.109, 2-{[6-(5-chloropyridin-3-yl)-7-[(trans-4-methylcyclohexyl)methyl]-2-(5-oxo-4,5-dihydro-1,2,4-oxadiazol-3-yl)-7H-purin-8-yl](methoxy)methyl}benzonitrile] | 0.000707 µM |
